Experimental data reported in patent publication US20040231558A1, “Water-color ink” (priority 2001, published 2004).

Experiments:
Format in all cases: physicochemical
[1] = Evaluation of light fastness-1 (OD value of printed portion after 100 hours xenon fadeometer); details: for (A)-1 light fastness-1: ink prepared as in Example 1 from the salt named in the row, OD value of printed portion after 100 hours xenon fadeometer
Protocol: (§1) The prepared ink was filled in an ink cartridge for a piezo-type ink-jet printer EM-930C (manufactured by Seiko Epson). The printing was performed with this printer, and the light fastness was evaluated. Further, the storage stability of the ink was evaluated.
(A)-1 Evaluation of Light Fastness-1
Printing density (OD value) was measured after irradiating a printed portion with light for 100 hours using a xenon fadeometer (manufactured by Suga Shikenki) to evaluate the light fastness.

[2] = Evaluation of light fastness-2 (OD value of printed portion after 400 hours xenon fadeometer); details: ink prepared as in Example 1 from the salt named in the row, OD value of printed portion after 400 hours xenon fadeometer
Protocol: as §1
(A)-2 Evaluation of Light Fastness-2
Printing density (OD value) was measured after irradiating a printed-portion with light for 400 hours using axenon fadeometer (manufactured by Suga Shikenki), and the light fastness was evaluated.

[3] = Evaluation of moisture resistance (image-recorded paper at 40° C. and humidity 85%, visual observation); details: for (B) moisture resistance: image-recorded paper at 40° C. and humidity 85%, visually observed
[4] = Evaluation of storage stability of ink (40° C. for 3 months, insoluble matter and clogging); details: recording liquid stored at 40° C. for 3 months; insoluble matter and clogging
Protocol: as §1
(C) Evaluation of Storage Stability of Ink:
After a recording liquid was stored at 40° C. for 3 months, it was observedwhether or not an insoluble matterwas precipitated, and whether or not clogging occurred after continuous recording with the foregoing printer for a long period of time.

[5] = ink prepared as in Example 1, for comparative inks in comparison to the ink of the invention

## Cc1c(N=Nc2cc(C(=O)O)ccc2C(=O)O)c(O)n(Cc2ccc(C(=O)O)c(C(=O)O)c2)c(=O)c1C#N [compound 92]
[1]
  (A)-1 light fastness-1: ⊚
[2]
  (A)-2 light fastness-2: ⊚⊚
[3]
  (B) moisture resistance: ⊚
[4]
  (C) storage stability: ◯

## Cc1c(N=Nc2cccc(C(=O)O)c2C(=O)O)c(O)n(CCCNc2nc(Cl)nc(NCCCn3c(O)c(N=Nc4cccc(C(=O)O)c4C(=O)O)c(C)c(C#N)c3=O)n2)c(=O)c1C#N [Compound 260]
[1]
  (A)-1 light fastness-1: ⊚
[2]
  (A)-2 light fastness-2: ◯
[3]
  (B) moisture resistance: ⊚
[4]
  (C) storage stability: Δ

## Cc1c(N=Nc2cc(C(=O)O)ccc2C(=O)O)c(O)n(CCCCCCNc2nc(Cl)nc(NCCn3c(O)c(N=Nc4cc(C(=O)O)ccc4C(=O)O)c(C)c(C#N)c3=O)n2)c(=O)c1C#N [Compound 249]
[1]
  (A)-1 light fastness-1: ⊚
[2]
  (A)-2 light fastness-2: ◯
[3]
  (B) moisture resistance: ⊚
[4]
  (C) storage stability: Δ

## Cc1c(N=Nc2c(C(=O)O)cccc2C(=O)O)c(O)n(CCC(=O)O)c(=O)c1C#N [compound 95]
[1]
  (A)-1 light fastness-1: ⊚
[2]
  (A)-2 light fastness-2: ⊚ and Δ
[3]
  (B) moisture resistance: Δ and ◯
[4]
  (C) storage stability: ◯ and Δ

## Cc1c(N=Nc2cc(C(=O)O)ccc2C(=O)O)c(O)n(CCCNc2nc(NCCn3c(O)c(N=Nc4cc(C(=O)O)ccc4C(=O)O)c(C)c(C#N)c3=O)nc(NCCn3c(O)c(N=Nc4c(C(=O)O)cccc4C(=O)O)c(C)c(C#N)c3=O)n2)c(=O)c1C#N [Compound 270]
[1]
  (A)-1 light fastness-1: ⊚
[2]
  (A)-2 light fastness-2: ⊚
[3]
  (B) moisture resistance: ⊚
[4]
  (C) storage stability: Δ

## Cc1c(N=Nc2cc(C(=O)O)ccc2C(=O)O)c(O)n(CCNc2nc(O)nc(NCCn3c(O)c(N=Nc4cc(C(=O)O)ccc4C(=O)O)c(C)c(C#N)c3=O)n2)c(=O)c1C#N [Compound 294]
[1]
  (A)-1 light fastness-1: ⊚
[2]
  (A)-2 light fastness-2: ◯
[3]
  (B) moisture resistance: ⊚
[4]
  (C) storage stability: Δ

## Cc1c(N=Nc2cc(C(=O)O)ccc2C(=O)O)c(O)n(CCS(=O)(=O)O)c(=O)c1C#N [compound 136]
[1]
  (A)-1 light fastness-1: ⊚
[2]
  (A)-2 light fastness-2: ⊚ and Δ and ◯
[3]
  (B) moisture resistance: Δ and ◯
[4]
  (C) storage stability: ◯ and Δ

## Cc1c(N=Nc2cc(C(=O)O)ccc2C(=O)O)c(O)n(CCC(=O)O)c(=O)c1C#N [compound 78]
[1]
  (A)-1 light fastness-1: ⊚
[2]; NH(CH2CH=CH2)3 salt form
  (A)-2 light fastness-2: ◯
[2]; Na salt form
  (A)-2 light fastness-2: ⊚
[3]
  (B) moisture resistance: ◯
[4]
  (C) storage stability: ◯

## CCc1c(N=Nc2cc(C(=O)O)ccc2C(=O)O)c(O)n(CCCNC(=O)c2cc(C(=O)O)c(C(=O)NCCCn3c(O)c(N=Nc4cc(C(=O)O)ccc4C(=O)O)c(C)c(C#N)c3=O)cc2C(=O)O)c(=O)c1C#N [Compound 280]
[1]
  (A)-1 light fastness-1: ⊚
[2]
  (A)-2 light fastness-2: ⊚
[3]
  (B) moisture resistance: ⊚
[4]
  (C) storage stability: ◯

## CCc1c(N=Nc2cc(C(=O)O)ccc2C(=O)O)c(O)n(CCn2c(=O)c3cc4c(=O)n(CCn5c(O)c(N=Nc6cc(C(=O)O)ccc6C(=O)O)c(CC)c(C#N)c5=O)c(=O)c4cc3c2=O)c(=O)c1C#N [Compound 335]
[1]
  (A)-1 light fastness-1: ⊚
[2]
  (A)-2 light fastness-2: ⊚⊚
[3]
  (B) moisture resistance: ⊚
[4]
  (C) storage stability: ◯

## N#Cc1c(-c2ccccc2)c(N=Nc2cc(C(=O)O)ccc2C(=O)O)c(O)n(CCNc2nc(Cl)nc(NCCn3c(O)c(N=Nc4cc(C(=O)O)ccc4C(=O)O)c(-c4ccccc4)c(C#N)c3=O)n2)c1=O [Compound 261]
[1]
  (A)-1 light fastness-1: ⊚
[2]
  (A)-2 light fastness-2: ◯
[3]
  (B) moisture resistance: ⊚
[4]
  (C) storage stability: Δ

## Cc1c(N=Nc2ccccc2C(=O)O)c(O)n(CCNC(=O)c2cc(C(=O)O)c(C(=O)NCCn3c(O)c(N=Nc4ccccc4C(=O)O)c(C)c(C#N)c3=O)cc2C(=O)O)c(=O)c1C#N [Compound 323]
[1]
  (A)-1 light fastness-1: ⊚
[2]
  (A)-2 light fastness-2: ⊚
[3]
  (B) moisture resistance: ⊚
[4]
  (C) storage stability: Δ

## N#Cc1c(C(F)(F)F)c(N=Nc2cc(C(=O)O)ccc2C(=O)O)c(O)n(CCNc2nc(Cl)nc(NCCn3c(O)c(N=Nc4cc(C(=O)O)ccc4C(=O)O)c(C(F)(F)F)c(C#N)c3=O)n2)c1=O [Compound 248]
[1]
  (A)-1 light fastness-1: ⊚
[2]
  (A)-2 light fastness-2: ⊚
[3]
  (B) moisture resistance: ⊚
[4]
  (C) storage stability: Δ

## Cc1c(N=Nc2c(C(=O)O)cccc2C(=O)O)c(O)n(CCNc2nc(NCCn3c(O)c(N=Nc4c(C(=O)O)cccc4C(=O)O)c(C)c(C#N)c3=O)nc(NCCn3c(O)c(N=Nc4c(C(=O)O)cccc4C(=O)O)c(C)c(C#N)c3=O)n2)c(=O)c1C#N [Compound 267]
[1]
  (A)-1 light fastness-1: ⊚
[2]
  (A)-2 light fastness-2: ◯
[3]
  (B) moisture resistance: ⊚
[4]
  (C) storage stability: Δ

## CCc1c(N=Nc2cc(C(=O)O)ccc2C(=O)O)c(O)n(CCNC(=O)c2cc(C(=O)NCCn3c(O)c(N=Nc4cc(C(=O)O)ccc4C(=O)O)c(CC)c(C#N)c3=O)c(C(=O)O)cc2C(=O)O)c(=O)c1C#N [Compound 297]
[1]
  (A)-1 light fastness-1: ⊚
[2]
  (A)-2 light fastness-2: ⊚
[3]
  (B) moisture resistance: ⊚
[4]
  (C) storage stability: ◯

## Cc1c(N=Nc2cc(C(=O)O)ccc2C(=O)O)c(O)n(CCCCCCNC(=O)c2cc(C(=O)NCCCCCCn3c(O)c(N=Nc4cc(C(=O)O)ccc4C(=O)O)c(C)c(C#N)c3=O)c(C(=O)O)cc2C(=O)O)c(=O)c1C#N [Compound 299]
[1]
  (A)-1 light fastness-1: ⊚
[2]
  (A)-2 light fastness-2: ◯
[3]
  (B) moisture resistance: ⊚
[4]
  (C) storage stability: ◯

## Cc1c(N=Nc2cc(C(=O)O)ccc2C(=O)O)c(O)n(CCCCCCNc2nc(NCCCCCCn3c(O)c(N=Nc4cc(C(=O)O)ccc4C(=O)O)c(C)c(C#N)c3=O)nc(NCCCCCCn3c(O)c(N=Nc4cc(C(=O)O)ccc4C(=O)O)c(C)c(C#N)c3=O)n2)c(=O)c1C#N [Compound 264]
[1]
  (A)-1 light fastness-1: ⊚
[2]
  (A)-2 light fastness-2: ◯
[3]
  (B) moisture resistance: ⊚
[4]
  (C) storage stability: Δ

## Cc1c(N=Nc2cc(C(=O)O)ccc2C(=O)O)c(O)n(CCn2c(=O)c3cc4c(=O)n(CCn5c(O)c(N=Nc6cc(C(=O)O)ccc6C(=O)O)c(C)c(C#N)c5=O)c(=O)c4cc3c2=O)c(=O)c1C#N [Compound 342]
[1]
  (A)-1 light fastness-1: ⊚
[2]
  (A)-2 light fastness-2: ⊚
[3]
  (B) moisture resistance: ⊚
[4]
  (C) storage stability: ◯

## Cc1c(N=Nc2cc(C(=O)O)ccc2C(=O)O)c(O)n(CCCNc2nc(NCCn3c(O)c(N=Nc4cc(C(=O)O)ccc4C(=O)O)c(C)c(C#N)c3=O)nc(NCCn3c(O)c(N=Nc4c(C(=O)O)cccc4C(=O)O)c(C)c(C#N)c3=O)n2)c(=O)c1C#N [Compound 274]
[1]
  (A)-1 light fastness-1: ⊚
[2]
  (A)-2 light fastness-2: ◯
[3]
  (B) moisture resistance: ⊚
[4]
  (C) storage stability: Δ

## Cc1c(N=Nc2cc(C(=O)O)ccc2C(=O)O)c(O)n(CCO)c(=O)c1C#N [compound 37]
[1]
  (A)-1 light fastness-1: ⊚
[2]
  (A)-2 light fastness-2: ⊚ and Δ
[3]
  (B) moisture resistance: ◯
[4]
  (C) storage stability: ◯ and Δ

## N#Cc1c(-c2ccccc2)c(N=Nc2cc(C(=O)O)ccc2C(=O)O)c(O)n(CCCCCCNC(=O)c2cc(C(=O)O)c(C(=O)NCCCCCCn3c(O)c(N=Nc4cc(C(=O)O)ccc4C(=O)O)c(-c4ccccc4)c(C#N)c3=O)cc2C(=O)O)c1=O [Compound 287]
[1]
  (A)-1 light fastness-1: ⊚
[2]
  (A)-2 light fastness-2: ⊚
[3]
  (B) moisture resistance: ⊚
[4]
  (C) storage stability: ◯

## CCCCc1c(N=Nc2cc(C(=O)O)ccc2C(=O)O)c(O)n(CCNc2nc(Cl)nc(NCCn3c(O)c(N=Nc4cc(C(=O)O)ccc4C(=O)O)c(CCCC)c(C#N)c3=O)n2)c(=O)c1C#N [Compound 278]
[1]
  (A)-1 light fastness-1: ⊚
[2]
  (A)-2 light fastness-2: ◯
[3]
  (B) moisture resistance: ⊚
[4]
  (C) storage stability: Δ

## O=C(O)c1nn(-c2ccc(S(=O)(=O)O)cc2)c(O)c1N=Nc1ccc(S(=O)(=O)O)cc1 [C. I. Acid Yellow 23, reference compound]
[1]; [5]
  light fastness (in words): poor
[3]; [5]
  moisture resistance (in words): poor
[4]
  (C) storage stability: ◯
